# Experimental data reported in patent US11352339B2 (MISSION THERAPEUTICS LIMITED, priority 2016, dated 2022).
# Target: USP30 (Homo sapiens (Human), UniProt Q70CQ3)
# Experiment: USP30 Biochemical IC50 Assay
# Conditions: fluorescence polarisation, TAMRA labelled peptide linked to ubiquitin; 30 min pre-incubation, read after 2 h; read-out: IC50 range
# Procedure, shortened: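 Enzyme preincubated 30 min at room temperature with compound, then 50 nM TAMRA-labelled isopeptide-linked ubiquitin–peptide substrate added. Fluorescence polarisation (ex 540/em 590 nm) read at once and after 2 h at room temperature; duplicate reactions.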
# Sequence of USP30 (Q70CQ3 57-517): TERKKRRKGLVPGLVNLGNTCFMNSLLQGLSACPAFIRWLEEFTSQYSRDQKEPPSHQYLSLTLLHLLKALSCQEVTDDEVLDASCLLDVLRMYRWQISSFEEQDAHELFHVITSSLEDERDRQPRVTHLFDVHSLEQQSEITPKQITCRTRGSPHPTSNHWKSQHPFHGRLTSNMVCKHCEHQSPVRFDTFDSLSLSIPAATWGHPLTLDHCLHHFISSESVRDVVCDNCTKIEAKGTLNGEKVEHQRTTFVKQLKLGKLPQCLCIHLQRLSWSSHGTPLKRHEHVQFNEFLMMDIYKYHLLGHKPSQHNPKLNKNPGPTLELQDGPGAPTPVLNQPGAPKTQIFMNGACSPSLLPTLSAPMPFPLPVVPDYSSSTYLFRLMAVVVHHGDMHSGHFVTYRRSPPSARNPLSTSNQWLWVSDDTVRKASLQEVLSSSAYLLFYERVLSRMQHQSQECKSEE
row,SMILES,IC50 [nM]
1,"N#CN1CCC(c2nc3cc(-c4ccncc4)cnc3[nH]2)C1 (single isomer, unassigned) [Example 82, 3-(6-(Pyridin-4-yl)-3H-imidazo[4,5-b]pyridin-2-yl)pyrrolidine-1-carbonitrile]",1000 to 10000
2,N#CN1CCC(c2cc(NC(=O)Cc3ccccc3)n[nH]2)C1 (stereo not shown) [Example 51],100 to 1000
3,"CN1CCN(c2ccc(-c3cc(C4CCN(C#N)C4)[nH]n3)cc2)CC1 (stereo not shown) [Example 5, 3-(3-(4-(4-Methylpiperazin-1-yl)phenyl)-1H-pyrazol-5-yl)pyrrolidine-1-carbonitrile]",100 to 1000
4,"Cc1c(-c2ccccc2)cnc2nc(C3CCN(C#N)C3)[nH]c12 (stereo not shown) [Example 100, 3-(7-Methyl-6-phenyl-3H-imidazo[4,5-b]pyridin-2-yl)pyrrolidine-1-carbonitrile]",100 to 1000
5,"C[C@@H]1CN(C#N)C[C@H]1c1n[nH]c(-c2cccc(-c3ccccc3)c2)n1 (single isomer, unassigned) [Example 116, Trans-3-(3-([1,1′-biphenyl]-3-yl)-1H-1,2,4-triazol-5-yl)-4-methylpyrrolidine-1-carbonitrile]",100 to 1000
6,"N#Cc1cccc(-c2ccc3oc([C@@H]4CCCN4C#N)nc3c2)c1 [Example 126, (S)-2-(5-(3-Cyanophenyl)benzo[d]oxazol-2-yl)pyrrolidine-1-carbonitrile]",100 to 1000
7,"CC(C)Oc1ccc(-c2ccc3nc(C4CCN(C#N)C4)[nH]c3c2)cn1 (stereo not shown) [Example 77, 3-(6-(6-Isopropoxypyridin-3-yl)-1H-benzo[d]imidazol-2-yl)pyrrolidine-1-carbonitrile]",100 to 1000
8,"N#Cc1cccc(-c2ccc3nc([C@@H]4CCCN4C#N)oc3c2)c1 [Example 128, (S)-2-(6-(3-Cyanophenyl)benzo[d]oxazol-2-yl)pyrrolidine-1-carbonitrile]",100 to 1000
9,"Cn1c(C2CCN(C#N)C2)nc2cc(-c3ccccc3)cnc21 (stereo not shown) [Example 101, 3-(3-Methyl-6-phenyl-3H-imidazo[4,5-b]pyridin-2-yl)pyrrolidine-1-carbonitrile]",100 to 1000
10,"N#CN1CCC(c2cc(-c3cccc(-c4ccccc4)c3)no2)C1 (single isomer, unassigned) [Example 118, 3-(3-([1,1′-Biphenyl]-3-yl)isoxazol-5-yl)pyrrolidine-1-carbonitrile]",< 100
11,"CNC(=O)c1ccc(-c2cc(C3CCN(C#N)C3)[nH]n2)cn1 (stereo not shown) [Example 3, 5-(5-(1-Cyanopyrrolidin-3-yl)-1H-pyrazol-3-yl)-N-methylpicolinamide]",1000 to 10000
12,"N#CN1CCC(c2noc(C3CCN(c4ccccc4)C3)n2)C1 (stereo not shown) [Example 69, 3-(5-(1-Phenylpyrrolidin-3-yl)-1,2,4-oxadiazol-3-yl)pyrrolidine-1-carbonitrile]",100 to 1000
13,"N#CN1CCC(c2noc(-c3ccc(Br)cc3)n2)C1 (stereo not shown) [Example 60, 3-(5-(4-Bromophenyl)-1,2,4-oxadiazol-3-yl)pyrrolidine-1-carbonitrile]",1000 to 10000
14,"CO[C@@H]1CCN(c2ccc(-c3nc(C4CCN(C#N)C4)no3)cc2)C1 (stereo partly drawn) [Example 62, 3-(5-(4-((R)-3-Methoxypyrrolidin-1-yl)phenyl)-1,2,4-oxadiazol-3-yl)pyrrolidine-1-carbonitrile]",1000 to 10000
15,"N#CN1CCC(c2[nH]nc(-c3cccc(-c4ccccc4)c3)c2F)C1 (single isomer, unassigned) [Example 16, 3-(3-([1,1′-Biphenyl]-3-yl)-4-fluoro-1H-pyrazol-5-yl)pyrrolidine-1-carbonitrile]",100 to 1000
16,"N#CN1CCC(c2noc(-c3ccc4ncsc4c3)n2)C1 (stereo not shown) [Example 54, 3-(5-(Benzo[d]thiazol-6-yl)-1,2,4-oxadiazol-3-yl)pyrrolidine-1-carbonitrile]",100 to 1000
17,"CCc1cccc(-c2ccc3oc([C@@H]4CCCN4C#N)nc3c2)c1 [Example 129, (S)-2-(5-(3-Ethylphenyl)benzo[d]oxazol-2-yl)pyrrolidine-1-carbonitrile]",100 to 1000
18,"N#CN1CCC(c2noc(-c3ccccc3OCc3ccccc3)n2)C1 (stereo not shown) [Example 59, 3-(5-(2-(Benzyloxy)phenyl)-1,2,4-oxadiazol-3-yl)pyrrolidine-1-carbonitrile]",1000 to 10000
19,"N#Cc1ccc(-c2cnc3[nH]c(C4CCN(C#N)C4)nc3c2)cc1 (single isomer, unassigned) [Example 90, 3-(6-(4-Cyanophenyl)-3H-imidazo[4,5-b]pyridin-2-yl)pyrrolidine-1-carbonitrile]",100 to 1000
20,"N#CN1CCC(c2nnc(-c3ccc4nccn4c3)[nH]2)C1 (stereo not shown) [Example 108, 3-(5-(Imidazo[1,2-a]pyridin-6-yl)-4H-1,2,4-triazol-3-yl)pyrrolidine-1-carbonitrile]",1000 to 10000
21,"N#CN1CCC(c2nnc(-c3ccccn3)[nH]2)C1 (stereo not shown) [Example 105, 3-(5-(Pyridin-2-yl)-4H-1,2,4-triazol-3-yl)pyrrolidine-1-carbonitrile]",1000 to 10000
22,"CC1CC(c2cc(-c3cccc(-c4ccccc4)c3)n[nH]2)CN1C#N (stereo not shown) [Example 27, 4-(3-([1,1′-Biphenyl]-3-yl)-1H-pyrazol-5-yl)-2-methylpyrrolidine-1-carbonitrile]",1000 to 10000
23,"N#CN1CCCC1c1noc(-c2ccc(-c3ccccc3)cc2)n1 (stereo not shown) [Example 67, 2-(5-([1,1′-Biphenyl]-4-yl)-1,2,4-oxadiazol-3-yl)pyrrolidine-1-carbonitrile]",1000 to 10000

# Further lines, results first:
row,IC50 [nM],SMILES
1,100 to 1000,"N#Cc1cnn(-c2cccc(-c3nc([C@@H]4CCCN4C#N)no3)c2)c1 [Example 190, (S)-1-(3-(3-(1-Cyanopyrrolidin-2-yl)-1,2,4-oxadiazol-5-yl)phenyl)-1H-pyrazole-4-carbonitrile]"
2,1000 to 10000,"COc1ccc(-c2cccc(-c3nc(C4CCCN4C#N)no3)c2)cn1 (stereo not shown) [Example 158, 2-(5-(3-(6-Methoxypyridin-3-yl)phenyl)-1,2,4-oxadiazol-3-yl)pyrrolidine-1-carbonitrile]"
3,< 100,"N#Cc1ccc(-c2cccc(-c3nc([C@@H]4CCCN4C#N)no3)n2)cc1 [Example 175, (S)-2-(5-(6-(4-Cyanophenyl)pyridin-2-yl)-1,2,4-oxadiazol-3-yl)pyrrolidine-1-carbonitrile]"
4,1000 to 10000,"Cc1noc(C)c1-c1cccc(-c2nc(C3CCCN3C#N)no2)c1 (stereo not shown) [Example 147, 2-(5-(3-(3,5-Dimethylisoxazol-4-yl)phenyl)-1,2,4-oxadiazol-3-yl)pyrrolidine-1-carbonitrile]"
5,1000 to 10000,"Cc1n[nH]c2cc(-c3ccc4oc([C@@H]5CCCN5C#N)nc4c3)ccc12 [Example 134, (S)-2-(5-(3-Methyl-1H-indazol-6-yl)-benzo[d]oxazol-2-yl)pyrrolidine-1-carbonitrile]"
6,1000 to 10000,"CN(C)S(=O)(=O)c1cccc(-c2cccc(-c3nc(C4CCCN4C#N)no3)c2)c1 (stereo not shown) [Example 150, 3′-(3-(1-Cyanopyrrolidin-2-yl)-1,2,4-oxadiazol-5-yl)-N,N-dimethyl-[1,1′-biphenyl]-3-sulfonamide]"
7,1000 to 10000,"CCc1cccc(-c2cc(C(=O)NC)c3nc([C@@H]4CCCN4C#N)oc3c2)c1 [Example 131, (S)-2-(1-Cyanopyrrolidin-2-yl)-6-(3-ethylphenyl)-N-methylbenzo[d]oxazole-4-carboxamide]"
8,100 to 1000,"CS(=O)(=O)c1ccc(-c2cccc(-c3nc(C4CCCN4C#N)no3)c2)cc1 (stereo not shown) [Example 153, 2-(5-(4′-(Methylsulfonyl)-[1,1′-biphenyl]-3-yl)-1,2,4-oxadiazol-3-yl)pyrrolidine-1-carbonitrile]"
9,1000 to 10000,"N#CN1CCCC1c1noc(-c2cccc(-c3ccc(C(N)=O)cc3)c2)n1 (stereo not shown) [Example 149, 3′-(3-(1-Cyanopyrrolidin-2-yl)-1,2,4-oxadiazol-5-yl)-[1,1′-biphenyl]-4-carboxamide]"
10,100 to 1000,"N#Cc1ccc2ccc(-c3nc([C@@H]4CCCN4C#N)no3)cc2c1 [Example 178, (S)-2-(5-(7-Cyanonaphthalen-2-yl)-1,2,4-oxadiazol-3-yl)pyrrolidine-1-carbonitrile]"
11,100 to 1000,"N#Cc1cccc(-c2cc(-c3nc(C4CCCN4C#N)no3)ncn2)c1 (stereo not shown) [Example 189, 2-(5-(6-(3-Cyanophenyl)pyrimidin-4-yl)-1,2,4-oxadiazol-3-yl)pyrrolidine-1-carbonitrile]"
